Test results taken from ChEMBL document CHEMBL1152560, “Substituted 2-arylbenzothiazoles as kinase inhibitors: hit-to-lead optimization” (Bioorg Med Chem, 2009).

What was measured:
[1] = biological target: Insulin receptor (Homo sapiens) (UniProt P06213); experiment: Residual activity of INSR at 1 uM by microplate scintillation counting
[2] = biological target: RAC-alpha serine/threonine-protein kinase (Homo sapiens) (UniProt P31749); experiment: Residual activity of AKT1 at 1 uM by microplate scintillation counting
[3] = biological target: T1, Megakaryocyte-associated tyrosine-protein kinase (Homo sapiens) (UniProt P42679); experiment: Residual activity of MATK at 0.1 uM by microplate scintillation counting
T1 sequence (whole entry): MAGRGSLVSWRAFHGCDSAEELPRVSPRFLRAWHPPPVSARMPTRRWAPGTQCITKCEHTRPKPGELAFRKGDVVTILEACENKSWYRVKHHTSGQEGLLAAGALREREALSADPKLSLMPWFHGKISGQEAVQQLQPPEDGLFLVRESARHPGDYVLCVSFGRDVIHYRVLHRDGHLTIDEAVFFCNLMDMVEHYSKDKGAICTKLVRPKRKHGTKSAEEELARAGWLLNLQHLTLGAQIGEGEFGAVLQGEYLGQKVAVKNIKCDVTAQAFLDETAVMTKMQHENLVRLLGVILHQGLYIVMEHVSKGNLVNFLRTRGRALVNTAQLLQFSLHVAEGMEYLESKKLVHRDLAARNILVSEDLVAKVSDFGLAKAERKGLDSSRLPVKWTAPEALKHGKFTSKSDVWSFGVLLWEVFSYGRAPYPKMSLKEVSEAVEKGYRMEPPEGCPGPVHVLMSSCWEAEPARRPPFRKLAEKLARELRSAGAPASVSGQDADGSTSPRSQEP

[4] = biological target: Interferon-induced, double-stranded RNA-activated protein kinase (Homo sapiens) (UniProt P19525); experiment: Residual activity of EIF2AK2 at 10 uM by microplate scintillation counting
[5] = biological target: T2, Inhibitor of nuclear factor kappa-B kinase subunit beta (Homo sapiens) (UniProt O14920); experiment: Residual activity of IKK-beta at 0.1 uM by microplate scintillation counting
T2 sequence (whole entry): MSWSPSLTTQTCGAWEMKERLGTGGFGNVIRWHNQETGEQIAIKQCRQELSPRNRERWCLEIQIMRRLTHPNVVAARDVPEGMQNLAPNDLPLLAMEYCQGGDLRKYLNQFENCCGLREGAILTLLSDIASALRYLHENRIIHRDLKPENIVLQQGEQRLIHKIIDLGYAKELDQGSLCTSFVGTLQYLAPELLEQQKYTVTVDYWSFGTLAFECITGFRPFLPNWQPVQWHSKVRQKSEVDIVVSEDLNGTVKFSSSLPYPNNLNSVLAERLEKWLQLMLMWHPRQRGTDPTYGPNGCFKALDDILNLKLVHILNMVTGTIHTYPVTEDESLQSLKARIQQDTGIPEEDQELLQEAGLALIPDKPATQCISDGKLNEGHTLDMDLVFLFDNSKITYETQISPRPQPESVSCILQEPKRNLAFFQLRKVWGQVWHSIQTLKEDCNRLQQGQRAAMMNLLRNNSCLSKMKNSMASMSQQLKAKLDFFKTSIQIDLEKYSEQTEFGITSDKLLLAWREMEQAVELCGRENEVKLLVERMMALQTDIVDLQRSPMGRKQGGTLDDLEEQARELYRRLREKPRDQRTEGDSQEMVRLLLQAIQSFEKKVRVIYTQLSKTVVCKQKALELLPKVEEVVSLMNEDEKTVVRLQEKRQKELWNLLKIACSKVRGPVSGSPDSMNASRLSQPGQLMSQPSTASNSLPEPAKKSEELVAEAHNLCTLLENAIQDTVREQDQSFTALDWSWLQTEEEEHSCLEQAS

[6] = biological target: Epidermal growth factor receptor (Homo sapiens, UniProt P00533); experiment: Residual activity of wild type EGF-R at 1 uM by microplate scintillation counting
[7] = biological target: Fibroblast growth factor receptor 3 (Homo sapiens) (UniProt P22607); experiment: Residual activity of FGFR3 at 0.1 uM by microplate scintillation counting
[8] = biological target: T3, Ephrin type-B receptor 3 (Homo sapiens) (UniProt P54753); experiment: Residual activity of EPHB3 at 1 uM by microplate scintillation counting
T3 sequence (whole entry): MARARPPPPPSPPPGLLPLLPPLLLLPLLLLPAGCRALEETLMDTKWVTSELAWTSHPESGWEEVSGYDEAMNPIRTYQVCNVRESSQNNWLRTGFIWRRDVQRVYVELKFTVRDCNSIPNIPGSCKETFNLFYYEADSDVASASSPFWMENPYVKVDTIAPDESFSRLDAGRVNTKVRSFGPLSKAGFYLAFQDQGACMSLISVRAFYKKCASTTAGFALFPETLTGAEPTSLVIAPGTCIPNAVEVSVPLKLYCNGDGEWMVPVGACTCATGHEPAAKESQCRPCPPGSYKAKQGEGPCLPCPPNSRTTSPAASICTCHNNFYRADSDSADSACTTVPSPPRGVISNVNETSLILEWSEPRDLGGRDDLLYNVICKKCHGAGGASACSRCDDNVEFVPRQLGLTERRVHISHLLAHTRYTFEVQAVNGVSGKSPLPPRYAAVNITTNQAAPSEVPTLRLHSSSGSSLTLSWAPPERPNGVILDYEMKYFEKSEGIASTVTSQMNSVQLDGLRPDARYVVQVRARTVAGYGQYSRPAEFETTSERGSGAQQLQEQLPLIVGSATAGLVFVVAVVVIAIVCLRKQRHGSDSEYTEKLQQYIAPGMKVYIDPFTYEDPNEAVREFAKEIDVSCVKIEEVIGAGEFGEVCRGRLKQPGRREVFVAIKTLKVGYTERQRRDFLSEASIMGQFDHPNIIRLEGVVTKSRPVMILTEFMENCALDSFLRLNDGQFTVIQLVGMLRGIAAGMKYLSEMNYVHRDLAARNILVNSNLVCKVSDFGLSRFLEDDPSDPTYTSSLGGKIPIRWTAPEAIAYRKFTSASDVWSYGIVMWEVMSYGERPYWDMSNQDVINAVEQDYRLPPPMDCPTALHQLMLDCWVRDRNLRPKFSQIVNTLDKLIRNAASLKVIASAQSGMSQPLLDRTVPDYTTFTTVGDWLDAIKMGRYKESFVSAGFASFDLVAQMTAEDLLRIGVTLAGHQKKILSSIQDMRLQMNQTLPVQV

[9] = biological target: Serine/threonine-protein kinase 16 (Homo sapiens) (UniProt O75716); experiment: Residual activity of TSF1 at 0.1 uM by microplate scintillation counting
Chain of Serine/threonine-protein kinase 16 (Homo sapiens) (O75716 whole entry): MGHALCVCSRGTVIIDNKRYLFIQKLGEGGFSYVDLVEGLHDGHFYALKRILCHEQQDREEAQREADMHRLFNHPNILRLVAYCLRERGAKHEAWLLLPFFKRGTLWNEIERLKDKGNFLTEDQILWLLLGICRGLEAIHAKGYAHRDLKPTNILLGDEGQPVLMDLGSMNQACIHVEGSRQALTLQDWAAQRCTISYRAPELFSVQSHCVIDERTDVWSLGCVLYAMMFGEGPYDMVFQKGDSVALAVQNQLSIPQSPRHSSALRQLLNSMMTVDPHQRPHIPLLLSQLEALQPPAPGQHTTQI

Chain of RAC-alpha serine/threonine-protein kinase (Homo sapiens) (P31749 whole entry): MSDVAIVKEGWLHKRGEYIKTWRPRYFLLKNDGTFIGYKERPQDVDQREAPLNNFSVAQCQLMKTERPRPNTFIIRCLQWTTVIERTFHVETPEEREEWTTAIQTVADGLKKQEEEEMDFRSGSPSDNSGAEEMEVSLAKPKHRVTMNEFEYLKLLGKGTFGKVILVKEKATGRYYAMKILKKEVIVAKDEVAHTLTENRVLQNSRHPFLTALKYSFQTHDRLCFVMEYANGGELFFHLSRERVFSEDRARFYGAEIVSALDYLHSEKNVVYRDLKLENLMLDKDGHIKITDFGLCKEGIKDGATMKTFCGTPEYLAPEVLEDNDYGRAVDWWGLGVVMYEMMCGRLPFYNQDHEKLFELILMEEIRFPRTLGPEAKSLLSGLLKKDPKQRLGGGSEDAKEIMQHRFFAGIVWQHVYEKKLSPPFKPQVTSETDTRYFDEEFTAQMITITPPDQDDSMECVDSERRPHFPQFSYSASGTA
Chain of Fibroblast growth factor receptor 3 (Homo sapiens) (P22607 23-806 limits assumed): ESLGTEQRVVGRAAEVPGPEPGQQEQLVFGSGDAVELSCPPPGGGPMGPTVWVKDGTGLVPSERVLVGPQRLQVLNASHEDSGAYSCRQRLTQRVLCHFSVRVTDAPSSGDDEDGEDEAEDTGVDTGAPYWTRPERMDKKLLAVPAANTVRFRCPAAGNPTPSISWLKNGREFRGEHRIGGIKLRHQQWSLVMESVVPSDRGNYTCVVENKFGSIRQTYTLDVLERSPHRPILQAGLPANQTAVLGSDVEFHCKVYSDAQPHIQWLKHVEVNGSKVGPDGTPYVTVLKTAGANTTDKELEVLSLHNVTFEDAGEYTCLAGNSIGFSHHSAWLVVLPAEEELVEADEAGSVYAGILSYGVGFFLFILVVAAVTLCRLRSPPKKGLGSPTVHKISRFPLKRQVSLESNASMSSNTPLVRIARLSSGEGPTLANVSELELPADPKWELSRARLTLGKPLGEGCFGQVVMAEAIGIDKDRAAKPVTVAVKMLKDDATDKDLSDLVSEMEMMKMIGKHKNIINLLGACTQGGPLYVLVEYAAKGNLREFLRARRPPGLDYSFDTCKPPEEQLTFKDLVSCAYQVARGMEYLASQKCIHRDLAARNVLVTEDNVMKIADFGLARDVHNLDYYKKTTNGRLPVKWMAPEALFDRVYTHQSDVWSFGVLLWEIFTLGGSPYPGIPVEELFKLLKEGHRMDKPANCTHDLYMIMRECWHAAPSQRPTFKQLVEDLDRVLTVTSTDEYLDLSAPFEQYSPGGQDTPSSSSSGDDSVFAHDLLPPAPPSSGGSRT
Chain of Interferon-induced, double-stranded RNA-activated protein kinase (Homo sapiens) (P19525 whole entry): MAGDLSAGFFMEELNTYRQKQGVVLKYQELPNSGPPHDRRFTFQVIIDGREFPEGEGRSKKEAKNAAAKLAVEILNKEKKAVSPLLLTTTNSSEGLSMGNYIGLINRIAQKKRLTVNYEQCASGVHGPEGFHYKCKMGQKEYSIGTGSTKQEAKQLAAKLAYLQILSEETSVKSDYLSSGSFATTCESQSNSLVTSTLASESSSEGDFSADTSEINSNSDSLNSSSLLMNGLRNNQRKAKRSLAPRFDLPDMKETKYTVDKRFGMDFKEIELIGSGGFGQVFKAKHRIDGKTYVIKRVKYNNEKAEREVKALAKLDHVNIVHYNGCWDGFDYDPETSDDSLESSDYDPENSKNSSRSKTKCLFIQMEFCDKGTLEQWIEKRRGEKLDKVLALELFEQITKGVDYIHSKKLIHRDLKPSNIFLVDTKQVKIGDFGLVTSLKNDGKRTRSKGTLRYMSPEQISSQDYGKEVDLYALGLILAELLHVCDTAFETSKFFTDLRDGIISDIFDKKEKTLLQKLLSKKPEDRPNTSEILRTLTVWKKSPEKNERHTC
Chain of Epidermal growth factor receptor (P00533 whole entry): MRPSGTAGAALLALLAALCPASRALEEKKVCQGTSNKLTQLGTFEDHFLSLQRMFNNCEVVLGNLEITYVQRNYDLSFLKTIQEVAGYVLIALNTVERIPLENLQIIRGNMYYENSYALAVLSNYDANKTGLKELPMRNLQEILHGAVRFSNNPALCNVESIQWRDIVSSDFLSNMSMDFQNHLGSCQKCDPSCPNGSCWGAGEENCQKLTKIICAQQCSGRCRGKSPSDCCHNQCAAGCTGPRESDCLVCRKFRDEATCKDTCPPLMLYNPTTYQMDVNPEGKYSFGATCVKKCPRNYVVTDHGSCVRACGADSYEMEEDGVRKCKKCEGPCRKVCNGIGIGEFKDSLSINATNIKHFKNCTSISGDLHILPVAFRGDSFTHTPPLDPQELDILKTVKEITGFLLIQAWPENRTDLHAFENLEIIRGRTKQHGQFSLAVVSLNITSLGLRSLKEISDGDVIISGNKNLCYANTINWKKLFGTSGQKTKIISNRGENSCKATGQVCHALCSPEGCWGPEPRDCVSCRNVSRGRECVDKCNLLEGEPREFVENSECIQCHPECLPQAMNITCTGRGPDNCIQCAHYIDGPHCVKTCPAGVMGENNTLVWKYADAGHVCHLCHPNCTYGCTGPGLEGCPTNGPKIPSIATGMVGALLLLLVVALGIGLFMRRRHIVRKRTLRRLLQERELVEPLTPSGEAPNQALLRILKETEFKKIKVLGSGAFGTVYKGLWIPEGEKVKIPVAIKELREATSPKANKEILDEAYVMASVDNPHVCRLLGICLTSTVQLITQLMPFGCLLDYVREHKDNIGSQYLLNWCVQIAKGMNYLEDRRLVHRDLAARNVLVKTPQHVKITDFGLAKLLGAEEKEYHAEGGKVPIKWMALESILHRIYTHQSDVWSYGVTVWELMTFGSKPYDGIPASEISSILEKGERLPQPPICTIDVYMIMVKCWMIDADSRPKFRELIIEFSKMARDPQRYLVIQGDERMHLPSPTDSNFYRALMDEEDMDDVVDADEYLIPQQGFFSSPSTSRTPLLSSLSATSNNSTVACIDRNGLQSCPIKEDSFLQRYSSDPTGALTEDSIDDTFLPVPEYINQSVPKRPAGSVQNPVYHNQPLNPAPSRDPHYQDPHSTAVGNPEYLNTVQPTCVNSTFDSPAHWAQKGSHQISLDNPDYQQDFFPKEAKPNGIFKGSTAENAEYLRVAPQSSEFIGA
Chain of Insulin receptor (Homo sapiens) (P06213 28-758 limits assumed): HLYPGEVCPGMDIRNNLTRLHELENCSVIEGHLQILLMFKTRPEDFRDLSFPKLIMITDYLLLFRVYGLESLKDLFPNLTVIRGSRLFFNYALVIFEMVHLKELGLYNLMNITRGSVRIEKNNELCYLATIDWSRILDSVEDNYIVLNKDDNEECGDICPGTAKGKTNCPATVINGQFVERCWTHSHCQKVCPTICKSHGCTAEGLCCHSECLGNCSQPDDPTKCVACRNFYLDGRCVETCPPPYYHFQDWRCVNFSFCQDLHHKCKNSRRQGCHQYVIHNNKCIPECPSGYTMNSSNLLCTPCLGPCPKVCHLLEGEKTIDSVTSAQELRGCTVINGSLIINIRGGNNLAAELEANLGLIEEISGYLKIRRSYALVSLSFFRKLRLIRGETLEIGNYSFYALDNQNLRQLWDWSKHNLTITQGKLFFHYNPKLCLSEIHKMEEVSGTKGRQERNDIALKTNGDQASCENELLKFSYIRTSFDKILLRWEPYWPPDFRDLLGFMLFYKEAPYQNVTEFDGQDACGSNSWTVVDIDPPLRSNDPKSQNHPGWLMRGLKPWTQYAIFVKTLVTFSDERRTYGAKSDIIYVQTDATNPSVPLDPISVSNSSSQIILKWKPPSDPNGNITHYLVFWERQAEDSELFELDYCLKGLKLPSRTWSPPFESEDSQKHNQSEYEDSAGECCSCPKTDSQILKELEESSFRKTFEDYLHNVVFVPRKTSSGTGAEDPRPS
Chain of Insulin receptor (Homo sapiens) (P06213 763-1382 limits assumed): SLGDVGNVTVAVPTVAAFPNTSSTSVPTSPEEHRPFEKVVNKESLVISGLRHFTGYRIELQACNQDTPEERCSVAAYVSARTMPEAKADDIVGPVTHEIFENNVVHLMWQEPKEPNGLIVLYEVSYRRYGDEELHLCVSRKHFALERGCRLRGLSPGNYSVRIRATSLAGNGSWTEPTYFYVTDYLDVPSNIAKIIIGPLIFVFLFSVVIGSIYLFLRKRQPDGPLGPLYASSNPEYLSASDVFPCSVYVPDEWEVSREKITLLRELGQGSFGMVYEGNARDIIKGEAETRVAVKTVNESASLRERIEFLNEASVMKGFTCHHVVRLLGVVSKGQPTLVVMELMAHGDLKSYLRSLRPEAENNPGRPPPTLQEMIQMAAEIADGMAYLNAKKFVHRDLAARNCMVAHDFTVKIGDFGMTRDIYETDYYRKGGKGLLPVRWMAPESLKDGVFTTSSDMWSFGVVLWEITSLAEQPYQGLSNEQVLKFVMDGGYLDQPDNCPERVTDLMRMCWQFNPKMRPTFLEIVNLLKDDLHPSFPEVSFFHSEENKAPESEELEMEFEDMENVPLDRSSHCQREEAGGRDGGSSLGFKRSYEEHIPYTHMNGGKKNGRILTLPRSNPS

residual activity [1] [%] | residual activity [2] [%] | residual activity [3] [%] | residual activity [4] [%] | residual activity [5] [%] | residual activity [6] [%] | residual activity [7] [%] | residual activity [8] [%] | residual activity [9] [%] | Compound
95 | 97 | 109 | 27 | 91 | 91 | 104 | 105 | 93 | COc1cc2c(Oc3ccc(-c4nc5ccccc5s4)cc3)ncnc2cc1OCCCN1CCCC1
98 | 109 | 107 | 21 | 96 | 77 | 95 | 108 | 100 | COc1cc2c(Oc3ccc(-c4nc5ccccc5s4)cc3)ncnc2cc1OCCCN1CCN(C)CC1
97 | 100 | 96 | 28 | 85 | 96 | 100 | 106 | 102 | COc1cc2c(Oc3ccc(-c4nc5ccccc5s4)cc3F)ncnc2cc1OCCCN1CCN(C)CC1
